Experimental findings from ChEMBL document CHEMBL5357068, “Discovery of Novel TLR7 Agonists as Systemic Agent for Combination With aPD1 for Use in Immuno-oncology” (ACS Med Chem Lett, 2024) are described below.

By fraction unbound is commonly meant the share of the substance not bound to proteins or other matrix. Broadly, the half-life is the time in which the quantity being followed falls by half. One may read the EC50 as the midpoint of the concentration-response curve. The clearance is a measure of how efficiently the substance is removed, as volume per time. In general, AUC(0-t) refers to exposure summed from dosing to a finite time, without extrapolation to infinity. For orientation: IC50 means the concentration at which inhibition is half-maximal.

Series [1] in a line: Protein binding in cynomolgus monkey plasma assessed as free fraction. It counts as ADME, cell-free, Macaca fascicularis.
A short description of series [2]: Metabolic stability in human liver microsomes assessed as half-life. It counts as ADME, Microsome. A general note: Liver microsomes are vesicles of endoplasmic reticulum, rich in cytochrome P450 enzymes.
Series [3] can be described thus: Permeability of compound at pH 7.4 by PAMPA. The note with it: read-out: permeability. In kind it is ADME. (In general: In PAMPA a lipid-coated filter parts donor from acceptor wells.)
A short description of series [4]: Permeability of compound across basolateral to apical side in human Caco-2 cells. The note with it: read-out: permeability. In kind it is ADME, cell-based.
Series [5] deals with T1, Toll-like receptor 8 (Homo sapiens) (UniProt Q9NR97).
T1 sequence (whole entry): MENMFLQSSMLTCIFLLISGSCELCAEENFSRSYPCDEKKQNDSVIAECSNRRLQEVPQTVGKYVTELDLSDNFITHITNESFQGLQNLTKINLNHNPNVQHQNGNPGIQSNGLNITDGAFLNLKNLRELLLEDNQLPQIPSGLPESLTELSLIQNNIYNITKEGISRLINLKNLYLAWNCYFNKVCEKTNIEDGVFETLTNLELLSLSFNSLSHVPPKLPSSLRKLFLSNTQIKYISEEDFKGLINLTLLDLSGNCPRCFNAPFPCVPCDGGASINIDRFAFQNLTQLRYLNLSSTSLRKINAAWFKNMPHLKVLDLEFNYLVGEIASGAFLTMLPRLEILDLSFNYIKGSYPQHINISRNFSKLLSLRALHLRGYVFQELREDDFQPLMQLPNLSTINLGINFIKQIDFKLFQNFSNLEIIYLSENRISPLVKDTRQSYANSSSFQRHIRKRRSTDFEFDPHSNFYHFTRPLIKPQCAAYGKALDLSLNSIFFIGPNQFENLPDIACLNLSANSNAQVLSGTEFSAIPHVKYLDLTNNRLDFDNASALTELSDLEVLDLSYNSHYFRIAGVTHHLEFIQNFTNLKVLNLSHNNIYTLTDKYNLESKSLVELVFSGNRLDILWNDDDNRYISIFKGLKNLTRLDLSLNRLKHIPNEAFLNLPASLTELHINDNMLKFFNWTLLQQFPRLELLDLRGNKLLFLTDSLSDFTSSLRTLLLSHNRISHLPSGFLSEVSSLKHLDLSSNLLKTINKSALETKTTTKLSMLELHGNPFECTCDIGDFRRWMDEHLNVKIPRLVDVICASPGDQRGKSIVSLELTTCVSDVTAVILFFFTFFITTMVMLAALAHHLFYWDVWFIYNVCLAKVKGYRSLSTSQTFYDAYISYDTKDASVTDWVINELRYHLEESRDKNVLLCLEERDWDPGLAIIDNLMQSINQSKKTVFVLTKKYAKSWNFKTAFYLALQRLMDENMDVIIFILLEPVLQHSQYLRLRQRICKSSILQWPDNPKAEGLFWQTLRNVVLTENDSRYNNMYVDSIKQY
Description: Agonist activity at human TLR8.

For series [6], the target named is T2, Toll-like receptor 9 (Homo sapiens) (UniProt Q9NR96).
T2 sequence (whole entry): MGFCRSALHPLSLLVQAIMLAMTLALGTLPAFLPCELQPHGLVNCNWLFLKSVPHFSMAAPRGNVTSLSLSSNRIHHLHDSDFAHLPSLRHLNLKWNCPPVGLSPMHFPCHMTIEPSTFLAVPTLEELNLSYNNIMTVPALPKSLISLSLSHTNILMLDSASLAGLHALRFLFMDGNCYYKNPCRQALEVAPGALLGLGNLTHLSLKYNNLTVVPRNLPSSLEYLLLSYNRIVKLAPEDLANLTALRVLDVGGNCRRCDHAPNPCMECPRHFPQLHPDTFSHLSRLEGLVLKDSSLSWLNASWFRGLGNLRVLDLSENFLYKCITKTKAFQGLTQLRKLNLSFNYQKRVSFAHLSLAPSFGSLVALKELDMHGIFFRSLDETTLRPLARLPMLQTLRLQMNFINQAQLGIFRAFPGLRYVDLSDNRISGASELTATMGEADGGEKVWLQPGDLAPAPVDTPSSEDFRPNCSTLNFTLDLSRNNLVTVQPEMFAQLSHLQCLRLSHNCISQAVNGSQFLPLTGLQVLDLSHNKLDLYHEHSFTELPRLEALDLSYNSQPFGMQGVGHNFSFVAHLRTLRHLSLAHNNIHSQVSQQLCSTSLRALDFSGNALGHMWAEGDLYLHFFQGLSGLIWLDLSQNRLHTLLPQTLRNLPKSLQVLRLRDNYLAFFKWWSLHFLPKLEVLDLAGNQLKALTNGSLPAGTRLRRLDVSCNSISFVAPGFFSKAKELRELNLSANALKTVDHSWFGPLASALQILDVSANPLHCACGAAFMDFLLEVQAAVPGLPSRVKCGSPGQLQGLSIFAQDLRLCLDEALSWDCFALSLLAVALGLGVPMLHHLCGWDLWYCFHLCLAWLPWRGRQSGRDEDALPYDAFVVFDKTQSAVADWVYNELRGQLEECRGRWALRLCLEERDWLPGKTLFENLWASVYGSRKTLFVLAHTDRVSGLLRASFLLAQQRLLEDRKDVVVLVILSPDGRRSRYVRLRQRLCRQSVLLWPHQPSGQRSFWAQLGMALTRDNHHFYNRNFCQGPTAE
Nature of the series: Agonist activity at human TLR9.

Series [7] deals with Blood. Description: Induction of TNF-alpha secretion in mouse whole blood. It counts as functional, tissue-based.
In another series the test system is THP-1. Nature of the series: Cytotoxicity against human THP-1 cells. In kind it is toxicity, cell-based.
Series [8] in a line: Drug concentration in Balb/c mouse at 0.5 mg/kg, iv measured after 5 min by LC-MS analysis. It counts as ADME, organism-based. The settings on record: in vivo, read-out: Drug uptake.
Series [9] in a line: Clearance in Balb/c mouse at 0.5 mg/kg, iv measured after 2 hrs by LC-MS analysis. It counts as ADME, organism-based. The settings on record: in vivo.
Series [10] can be described thus: AUClast in Balb/c mouse at […], iv measured after 2 hrs by LC-MS analysis. The note with it: in vivo. On the set-up: time 2 hrs, dose 0.15 mg/kg, route iv. It counts as ADME, organism-based.
A short description of series [11]: Metabolic stability in mouse liver microsomes assessed as compound remaining. In kind it is ADME, Microsome.
Series [12] addresses Voltage-gated inwardly rectifying potassium channel KCNH2 (Homo sapiens, UniProt Q12809). Nature of the series: Inhibition of hERG by patch clamp assay. In kind it is toxicity. In general terms: hERG is a cardiac potassium channel; its block is linked to QT prolongation.
The nature of series [13]: Protein binding in human plasma assessed as free fraction. In kind it is ADME, cell-free.
For series [14], the target named is Toll-like receptor 2 (Homo sapiens) (UniProt O60603). Description: Agonist activity at human TLR2.
The test system of another series is Mus musculus. Description: Induction of IFN-alpha production in iv dosed Balb/c mouse serum measured after 6 hrs by ELISA analysis. It counts as functional, organism-based. The note with it: dose lower […], dose upper 0.5 mg/kg.
Series [15] can be described thus: Permeability of compound at pH 5.5 by PAMPA. The note with it: read-out: permeability. In kind it is ADME.
A short description of series [16]: Permeability of compound across apical to basolateral side in human Caco-2 cells. In kind it is ADME, cell-based. The settings on record: read-out: permeability.
Series [17] can be described thus: Inhibition of GPCR (unknown origin). On the set-up: species or system Homo sapiens.
For series [18], the system named is Blood. Nature of the series: Induction of IFIT1 secretion in human whole blood. It counts as functional, tissue-based.
Series [19] can be described thus: Drug concentration in Balb/c mouse at […], iv measured after 5 min by LC-MS analysis. In kind it is ADME, organism-based. The note with it: in vivo, dose 0.15 mg/kg, read-out: Drug uptake.
Series [20] can be described thus: AUClast in Balb/c mouse at 0.5 mg/kg, iv measured after 2 hrs by LC-MS analysis. On the set-up: dose 0.5 mg/kg, time 2 hrs, route iv. In kind it is ADME, organism-based. The settings on record: in vivo.
Series [21] in a line: Metabolic stability in human liver microsomes assessed as compound remaining. In kind it is ADME, Microsome.
The target in series [22] is Toll-like receptor 3 (Homo sapiens) (UniProt O15455). Nature of the series: Agonist activity at human TLR3.
Sequence of Toll-like receptor 3 (Homo sapiens) (O15455 whole entry): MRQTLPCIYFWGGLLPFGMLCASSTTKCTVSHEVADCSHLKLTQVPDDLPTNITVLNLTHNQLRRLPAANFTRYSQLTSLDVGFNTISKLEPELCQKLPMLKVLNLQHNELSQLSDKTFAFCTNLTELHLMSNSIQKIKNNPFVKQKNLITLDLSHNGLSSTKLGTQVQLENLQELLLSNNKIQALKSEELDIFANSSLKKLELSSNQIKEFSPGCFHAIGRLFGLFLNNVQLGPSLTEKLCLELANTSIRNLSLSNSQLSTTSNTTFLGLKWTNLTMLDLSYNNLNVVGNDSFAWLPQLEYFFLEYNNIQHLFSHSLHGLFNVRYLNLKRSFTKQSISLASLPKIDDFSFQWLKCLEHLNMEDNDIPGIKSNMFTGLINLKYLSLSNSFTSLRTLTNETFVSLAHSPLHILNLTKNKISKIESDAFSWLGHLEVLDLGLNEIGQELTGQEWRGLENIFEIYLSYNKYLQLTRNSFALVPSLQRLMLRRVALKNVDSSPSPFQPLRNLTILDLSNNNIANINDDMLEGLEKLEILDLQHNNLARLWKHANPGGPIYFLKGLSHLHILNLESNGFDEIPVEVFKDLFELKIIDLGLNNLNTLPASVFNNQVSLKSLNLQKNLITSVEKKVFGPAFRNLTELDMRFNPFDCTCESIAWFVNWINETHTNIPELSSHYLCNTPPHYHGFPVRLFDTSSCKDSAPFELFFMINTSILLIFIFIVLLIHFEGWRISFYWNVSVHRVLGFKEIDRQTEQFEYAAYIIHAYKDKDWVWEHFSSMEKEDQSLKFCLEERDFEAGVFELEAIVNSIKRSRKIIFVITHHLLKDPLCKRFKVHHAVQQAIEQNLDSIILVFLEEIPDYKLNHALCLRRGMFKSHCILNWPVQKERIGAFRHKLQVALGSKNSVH

Sequence of Toll-like receptor 2 (Homo sapiens) (O60603 whole entry): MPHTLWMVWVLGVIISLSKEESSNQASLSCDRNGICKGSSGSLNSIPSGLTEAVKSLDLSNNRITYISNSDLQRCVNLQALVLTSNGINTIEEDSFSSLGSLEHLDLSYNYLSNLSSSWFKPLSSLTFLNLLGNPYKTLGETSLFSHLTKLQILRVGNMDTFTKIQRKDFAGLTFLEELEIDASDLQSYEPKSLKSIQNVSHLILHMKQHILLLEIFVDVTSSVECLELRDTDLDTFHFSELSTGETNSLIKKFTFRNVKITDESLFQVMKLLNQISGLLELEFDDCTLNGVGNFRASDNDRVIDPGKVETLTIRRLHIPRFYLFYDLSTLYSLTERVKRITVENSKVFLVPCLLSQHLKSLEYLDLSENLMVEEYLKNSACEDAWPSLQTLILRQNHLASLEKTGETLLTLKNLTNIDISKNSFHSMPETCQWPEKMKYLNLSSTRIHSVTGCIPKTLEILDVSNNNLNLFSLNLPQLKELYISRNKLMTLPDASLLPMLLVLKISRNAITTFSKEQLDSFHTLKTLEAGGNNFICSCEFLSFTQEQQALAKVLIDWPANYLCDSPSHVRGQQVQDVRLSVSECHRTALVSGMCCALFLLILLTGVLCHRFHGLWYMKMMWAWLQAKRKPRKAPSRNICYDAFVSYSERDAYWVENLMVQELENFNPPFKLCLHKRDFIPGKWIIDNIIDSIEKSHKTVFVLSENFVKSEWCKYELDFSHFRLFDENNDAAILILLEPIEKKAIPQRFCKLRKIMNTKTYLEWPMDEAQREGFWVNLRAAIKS
Sequence of Voltage-gated inwardly rectifying potassium channel KCNH2 (Q12809 whole entry): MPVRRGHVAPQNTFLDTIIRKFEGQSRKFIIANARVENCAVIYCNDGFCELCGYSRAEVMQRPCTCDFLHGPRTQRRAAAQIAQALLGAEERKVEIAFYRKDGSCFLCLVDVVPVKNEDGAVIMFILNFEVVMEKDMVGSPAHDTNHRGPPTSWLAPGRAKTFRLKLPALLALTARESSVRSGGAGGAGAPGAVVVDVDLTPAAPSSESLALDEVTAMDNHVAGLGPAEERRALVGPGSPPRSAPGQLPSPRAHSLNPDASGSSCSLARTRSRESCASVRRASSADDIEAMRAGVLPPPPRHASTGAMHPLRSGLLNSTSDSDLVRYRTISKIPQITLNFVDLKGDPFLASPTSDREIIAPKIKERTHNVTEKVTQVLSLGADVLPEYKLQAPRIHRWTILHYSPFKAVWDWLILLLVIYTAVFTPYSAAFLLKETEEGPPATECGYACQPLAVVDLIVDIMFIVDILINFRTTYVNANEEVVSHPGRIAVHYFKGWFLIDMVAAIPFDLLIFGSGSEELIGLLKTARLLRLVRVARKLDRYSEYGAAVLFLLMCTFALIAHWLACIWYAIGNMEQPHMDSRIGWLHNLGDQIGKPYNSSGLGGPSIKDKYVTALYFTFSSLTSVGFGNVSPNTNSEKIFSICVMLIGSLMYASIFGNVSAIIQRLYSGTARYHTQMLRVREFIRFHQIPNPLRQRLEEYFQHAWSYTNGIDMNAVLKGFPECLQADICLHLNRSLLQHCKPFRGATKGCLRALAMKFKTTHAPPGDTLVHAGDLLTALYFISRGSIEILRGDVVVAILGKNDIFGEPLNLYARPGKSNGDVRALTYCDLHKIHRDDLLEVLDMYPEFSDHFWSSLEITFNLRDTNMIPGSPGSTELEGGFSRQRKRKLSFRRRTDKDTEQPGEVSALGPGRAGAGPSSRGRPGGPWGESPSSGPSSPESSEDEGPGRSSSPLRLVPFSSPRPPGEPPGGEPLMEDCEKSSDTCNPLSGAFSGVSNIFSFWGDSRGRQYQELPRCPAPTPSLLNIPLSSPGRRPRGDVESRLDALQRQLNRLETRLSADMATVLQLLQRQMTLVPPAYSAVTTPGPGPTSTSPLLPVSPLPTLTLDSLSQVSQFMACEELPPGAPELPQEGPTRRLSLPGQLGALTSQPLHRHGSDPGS

Regarding `CCC[C@@H](CCO)Nc1nc(N)nc2cnn(Cc3ccc(CNC4CCOCC4)cc3OC)c12`, the fraction unbound in series [1] stood at 0.31; in series [13] it was 0.5. Besides, the half-life in series [2] turned out to be 43 min. Moreover, the Papp in series [3] turned out to be 1.58 ×10⁻⁶ cm/s; in series [15], 0.95 ×10⁻⁶ cm/s. Also, the Papp B→A in [4] was 10.9 ×10⁻⁶ cm/s. Besides, the EC is over 5 µM in [5]; over 5 µM in series [6]; over 25 µM with THP-1; over 5 µM in [14]; over 5 µM in [22]. Moreover, the EC50 in the series with Blood [7] came out at 3.4 nM; with Blood [18], 0.1 nM. The concentration at 5 min in series [8] was found to be 139 nM; in series [19] it was 85 nM. The clearance in series [9] is 160 mL/min/kg. The values for the AUC(0-t) at 2 h in series [10] and in [20] were 0.075 µM·h and 0.183 µM·h, respectively. Further, the figures for the Stability in series [11] and in series [21] were 81% and 75%, respectively. The half-maximal inhibitory concentration (IC50) in series [12] is at least 45000 nM; in [17] it was over 30000 nM. Further, the Activity entry in the series on Mus musculus is “Dose-Dependent Effect”. Besides, the Papp A→B in [16] came out at 1.4 ×10⁻⁶ cm/s.
